This is an account of results in PMC6270864, “Identification of Two Novel α1-AR Agonists Using a High-Throughput Screening Model” (Molecules, 2014).

Molecules are shown by their SMILES.

Data set [1] addresses T1, human α1D-adrenoceptor (ADRA1D) expressed in HEK293 cells (Homo sapiens, UniProt P25100).
T1 construct: eGFP; host or cells: HEK293 (transient, Lipofectamine 2000)
T1 sequence (P25100 1-572): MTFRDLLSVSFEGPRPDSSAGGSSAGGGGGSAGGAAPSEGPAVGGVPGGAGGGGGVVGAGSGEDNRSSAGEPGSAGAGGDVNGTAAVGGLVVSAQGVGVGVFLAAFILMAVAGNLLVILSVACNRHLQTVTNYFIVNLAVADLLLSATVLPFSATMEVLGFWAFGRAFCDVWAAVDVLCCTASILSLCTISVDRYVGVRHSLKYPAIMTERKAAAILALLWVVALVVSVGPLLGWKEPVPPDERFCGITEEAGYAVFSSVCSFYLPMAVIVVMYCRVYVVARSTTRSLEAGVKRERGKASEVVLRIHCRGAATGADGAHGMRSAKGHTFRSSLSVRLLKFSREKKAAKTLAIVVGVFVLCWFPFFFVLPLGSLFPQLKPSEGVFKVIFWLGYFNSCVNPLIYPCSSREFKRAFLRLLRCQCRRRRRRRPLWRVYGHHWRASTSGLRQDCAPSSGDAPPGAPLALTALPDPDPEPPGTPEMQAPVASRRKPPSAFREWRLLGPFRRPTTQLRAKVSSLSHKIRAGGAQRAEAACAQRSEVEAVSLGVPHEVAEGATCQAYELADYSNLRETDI
As to the kind of experiment: Dual-luciferase CRE reporter HTS assay, inhibition of PE-induced CRE activation (RIP). The following applies: relative inhibitory potency = (RLU PE alone − RLU PE+antagonist)/RLU PE alone. The format is cell-based. On the procedure:
(§1) Furthermore, the relative inhibitory potency (RIP) could be used to improve the readability of the results. Which was determined relative to that of PE-induced group ([…]), and calculated using the following formula [15]: RIP = (RLUPE alone − RLUPE+antagonist)/RLUPE alone(1)
(§2) HEK293 cells were plated at a density of 10^5 […] in 96-well plates in 100 μL of DMEM basic medium containing 10% fetal bovine serum, 100 U/mL penicillin, and 0.1 mg/mL streptomycin. After overnight incubation, human ADRA1-expression vectors, namely, ADRA1A, ADRA1B, and ADRA1D, were co-transfected with reporter vectors (CRE, SRE, AP1, NFAT, and NF-кB) and pGL4.74 [hRluc/TK] (included as a control for transfection efficiency) using Lipofectamine 2000 transfection reagent (Invitrogen Life Technologies, Carlsbad, CA, USA). The medium was removed after 4 h and replaced with high-glucose DMEM for 18 h. Cells were then treated with agonists (at concentrations of 0.01–20 μM) and incubated for 8 h.
(§3) Firefly and Renilla luciferase activities, which are indicated as RLUs, were determined using Dual-Glo luciferase assay kits (Promega) according to the manufacturer’s instructions. RLUs were measured using a luminometer (GloMaxTM 96-Microplate Luminometer, Promega) and are reported as the mean ± SEM of three individual experiments. For agonists, fold of induction = RLUinduced/RLUuninduced. For antagonists, % of control = 100 × RLU (agonist + antagonist)/RLU(agonist alone). All RLUs were normalized against firefly RLUs/Renilla RLUs. […] The pKB of the antagonist was calculated by plotting log (dose ratio–1) against the antagonist dose (μM) and subjecting the data to Schild regression, where the intercept of the x-axis represents the pKB.

Data set [2] has as its target T2, human α1A-adrenoceptor (ADRA1A) expressed in HEK293 cells (Homo sapiens, UniProt P35348).
T2 construct: eGFP; host or cells: HEK293 (transient, Lipofectamine 2000)
T2 sequence (P35348 1-466): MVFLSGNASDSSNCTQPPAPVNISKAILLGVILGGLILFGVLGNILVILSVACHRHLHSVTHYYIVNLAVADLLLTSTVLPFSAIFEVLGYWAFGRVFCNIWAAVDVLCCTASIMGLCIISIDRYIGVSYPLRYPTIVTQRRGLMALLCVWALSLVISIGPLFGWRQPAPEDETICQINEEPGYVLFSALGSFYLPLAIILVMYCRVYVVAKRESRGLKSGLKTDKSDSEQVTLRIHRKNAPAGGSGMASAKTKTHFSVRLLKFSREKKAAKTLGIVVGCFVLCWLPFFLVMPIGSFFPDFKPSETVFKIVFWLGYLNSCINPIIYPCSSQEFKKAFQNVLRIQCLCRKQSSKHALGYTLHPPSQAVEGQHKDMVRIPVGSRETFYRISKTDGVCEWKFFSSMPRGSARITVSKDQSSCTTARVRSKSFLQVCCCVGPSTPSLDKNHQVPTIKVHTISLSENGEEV
Described as above. The format is cell-based. The following applies: relative inhibitory potency = (RLU PE alone − RLU PE+antagonist)/RLU PE alone. On the procedure:
as §1, §2, §3

Data set [3] has as its target T3, human α1B-adrenoceptor (ADRA1B) expressed in HEK293 cells (Homo sapiens, UniProt P35368).
T3 construct: eGFP; host or cells: HEK293 (transient, Lipofectamine 2000)
T3 sequence (P35368 1-520): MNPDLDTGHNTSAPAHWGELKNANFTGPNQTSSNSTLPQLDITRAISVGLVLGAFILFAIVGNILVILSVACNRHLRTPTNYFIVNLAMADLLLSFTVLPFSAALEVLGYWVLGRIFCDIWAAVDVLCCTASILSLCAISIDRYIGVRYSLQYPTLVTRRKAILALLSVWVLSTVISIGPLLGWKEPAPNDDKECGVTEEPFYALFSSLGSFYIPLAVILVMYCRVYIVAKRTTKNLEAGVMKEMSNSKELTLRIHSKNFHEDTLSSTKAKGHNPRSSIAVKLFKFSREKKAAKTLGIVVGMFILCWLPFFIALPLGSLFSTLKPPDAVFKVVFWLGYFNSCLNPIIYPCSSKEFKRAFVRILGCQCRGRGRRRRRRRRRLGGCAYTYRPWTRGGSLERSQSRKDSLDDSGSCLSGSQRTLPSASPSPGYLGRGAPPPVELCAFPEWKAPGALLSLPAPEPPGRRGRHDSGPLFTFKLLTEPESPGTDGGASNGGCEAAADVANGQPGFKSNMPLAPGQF
The data set is described as above. The format is cell-based. The following applies: relative inhibitory potency = (RLU PE alone − RLU PE+antagonist)/RLU PE alone. On the procedure: as §1, §2, §3

The test system of data set [4] is human prostate cancer cell lines (PC-3, LNCaP and DU145). The experiment in a line: CCK-8 assay, summary over tested cancer cell lines. The format is cell-based. As to conditions: range over PC-3, LNCaP, DU145 and both compounds, read-out: IC50, cytotoxic activities against tested cancer cell lines. On the procedure: (§4) Cell proliferation was measured with the Cell Counting Kit-8 (CCK-8) assay kit (Dojindo Corp., Kumamoto, Japan). Cells were harvested during logarithmic growth phase and seeded in 96-well plates at a density of 1 × 10^5 cells/mL, and cultured at 37 °C in a humidified incubator (5% CO2) for 24 h, followed by exposure to various concentrations of compounds tested for 24 h. Subsequently 10 μL of CCK-8 (Dojindo) was added to each well, the cells were then incubated for an additional 1 h at 37 °C to convert WST-8 into formazan. Cell growth inhibition was determined by measuring the absorbance (Abs) at λ = 450 nm using amicroplate reader. Three independent experiments were performed. Cell growth inhibition was calculated according to the following equation: Growth inhibition = (1 − OD of treated cells/OD of control cells) × 100% (2)
(§5) The half maximal inhibitory concentrations (IC50) were obtained from liner regression analysis of the concentration-response curves plotted for each tested compound.
On the technique in general: Tetrazolium assays rely on reduction of a dye to a coloured formazan, in cell work by metabolically active cells.

Data set [5] addresses T1, human α1D-adrenoceptor (ADRA1D) expressed in HEK293 cells. The experiment in a line: Dual-luciferase CRE reporter HTS assay, agonist mode. The following applies: HEK293, 8 h, read-out: EC50 α1D (agonistic activity). The format is cell-based. The procedure: as §2, §3
Data set [6] deals with T3, human α1B-adrenoceptor (ADRA1B) expressed in HEK293 cells. Described as above. As to conditions: HEK293, 8 h, read-out: EC50 α1B (agonistic activity). The format is cell-based. On the procedure:
as §2, §3

Data set [7] deals with α1-ARs (α1A, α1B, and α1D). The experiment in a line: Dual-luciferase CRE reporter HTS assay, agonist mode, summary over subtypes. The format is cell-based, human. The following applies: for EC50: range over the three subtypes and both compounds, read-out: EC50, agonistic activities on α1-ARs (α1A, α1B, and α1D). On the procedure:
as §2, §3

Data set [8] has as its system RWPE-1 human prostate epithelial cell line. As to the kind of experiment: CCK-8 assay, cytotoxic / anti-proliferative activity. As to conditions: for cytotoxic effects on human epithelial prostate normal cells RWPE-1: CCK-8; for IC50: Homo sapiens, RWPE-1, CCK-8, 24 h exposure, mean ± SD, three experiments. The format is cell-based. On the procedure: as §4, §5
Data set [9] has as its system LNCaP human prostate cancer cell line. Described as above. The format is cell-based. The following applies: CCK-8, 24 h exposure, mean ± SD, three experiments. The procedure: as §4, §5
The test system of data set [10] is PC-3 human prostate cancer cell line. The description is as above. The format is cell-based. As to conditions: CCK-8, 24 h exposure, mean ± SD, three experiments. The procedure:
as §4, §5

Data set [11] relates to DU145 human prostate cancer cell line. Described as above. The format is cell-based. As to conditions: DU-145, CCK-8, 24 h exposure, mean ± SD, three experiments. On the procedure:
as §4, §5

Data set [12] addresses T2, human α1A-adrenoceptor (ADRA1A) expressed in HEK293 cells. As to the kind of experiment: Dual-luciferase CRE reporter HTS assay, agonist mode. The following applies: HEK293, 8 h, read-out: EC50 α1A (agonistic activity). The format is cell-based. The procedure: as §2, §3
Another data set has as its system α1-ARs (α1A, α1B, α1D). As to conditions: α1-AR subtype selectivity, cited from earlier work.

Take `COc1ccccc1N1CCN(CCCNc2c(C)c(=O)n(C)c(=O)n2C)CC1` [5-Methylurapidil, 5-methylurapidil]: the “RIP Values (Mean ± S.E.M, n = 4) α1D” value in [1] came out at 0.51 ± 0.09. Also, the “RIP Values (Mean ± S.E.M, n = 4) α1A” value in data set [2] turned out to be 0.83 ± 0.03. Also, in data set [3], the “RIP Values (Mean ± S.E.M, n = 4) α1B” value was 0.63 ± 0.07.
In the case of `Cc1ccc(S(=O)(=O)OCCc2ccc(CN3C(=O)c4ccccc4C3=O)cc2)cc1` [CHE3], the IC50 (as a rule, the concentration that gives 50% inhibition) was 11.1 to 91.3 µM in data set [4]; 30.7 ± 0.66 µM in [8]; 47 ± 1.24 µM in data set [9]; 91.3 ± 1.13 µM in data set [10]; 11.1 ± 1.07 µM in data set [11]. Moreover, the 50% effective concentration (EC50) (as a rule, the midpoint of the concentration-response curve) in data set [5] was 47.2 µM; in data set [6], 42.7 µM; in data set [7], 25.3 to 47.2 µM. Further, the “subtype selectivity in the HTS assay” value in [7] (α1A, α1B, α1D) was “did not display significant subtype selectivity”. Further, the “cytotoxic effects on human epithelial prostate normal cells RWPE-1” value in [8] is reported as “exhibited cytotoxic effects”.
As for `Cc1ccc(S(=O)(=O)OCCc2ccc(COc3ccc4c(c3)OCO4)cc2)cc1` [CHK3], the IC50 in [4] is 11.1 to 91.3 µM; in data set [8] it was 31.7 ± 0.61 µM; in [9] it was 51.5 ± 1.08 µM; in [10], 55.3 ± 1.09 µM; in data set [11], 39.1 ± 0.81 µM. Moreover, the EC50 in data set [5] was 34.3 µM; in [12], 42.5 µM; in data set [6], 35.2 µM; in data set [7] it was 25.3 to 47.2 µM. For the same molecule, the “cytotoxic effects on human epithelial prostate normal cells RWPE-1” value in [8] is “exhibited cytotoxic effects”.
In the case of `COc1cc2nc(N3CCN(C(=O)OCc4ccccc4)[C@H](C(=O)NC(C)(C)C)C3)nc(N)c2cc1OC` [Compound L-765314], the “RIP Values (Mean ± S.E.M, n = 4) α1D” value in data set [1] was 0.30 ± 0.11. For the same molecule, the “RIP Values (Mean ± S.E.M, n = 4) α1A” value in [2] is reported as 0.53 ± 0.08. For the same molecule, the “RIP Values (Mean ± S.E.M, n = 4) α1B” value in data set [3] stood at 0.86 ± 0.01.
For `COc1ccccc1N1CCN(CC(O)COc2cccc3ccccc23)CC1` (stereo not drawn) [Naftopidil, naftopidil, reference compound], the “RIP Values (Mean ± S.E.M, n = 4) α1D” value in data set [1] stood at 0.93 ± 0.01. The “RIP Values (Mean ± S.E.M, n = 4) α1A” value in data set [2] is recorded as 0.79 ± 0.09. The “RIP Values (Mean ± S.E.M, n = 4) α1B” value in data set [3] amounted to 0.77 ± 0.02. Besides, the IC50 in [8] came to 52 ± 1.51 µM; in [9] it was 22.4 ± 0.61 µM; in data set [10] it was 42.1 ± 0.79 µM; in data set [11], 34.58 ± 0.31 µM.
Consider `CNC[C@H](O)c1cccc(O)c1` [Phenylephrine, phenylephrine, reference compound], for which the EC50 in data set [5] stood at 2.68 µM.
As for `COc1cc2nc(N3CCN(C(=O)C4CCCO4)CC3)nc(N)c2cc1OC` (stereo not drawn) [Terazosin, terazosin], in the data set with α1-ARs (α1A, α1B, α1D), the “Reported Selectivity” value was “Nonselective [17]”. The “Reported Selectivity (Table S1)” value in the data set with α1-ARs (α1A, α1B, α1D) (ref 2 (supplement)) was “Nonselective”. For the same molecule, the “RIP Values (Mean ± S.E.M, n = 4) α1D” value in data set [1] is on record as 0.49 ± 0.02. For the same molecule, the “RIP Values (Mean ± S.E.M, n = 4) α1A” value in data set [2] is recorded as 0.89 ± 0.05. For the same molecule, in data set [3], the “RIP Values (Mean ± S.E.M, n = 4) α1B” value stood at 0.91 ± 0.02.
